Reference: US20230278972A1, “SUBSTITUTED HALOALKYL SULFONANILIDE HERBICIDES” (FMC Corporation, priority 2020, published 2023)

Columns and labels:
Type in all cases: in vivo
[1] = tested on: Foxtail, Giant (giant foxtail, Setaria faberi); assay: Test A1 preemergence, Foxtail, Giant
Text: (§1) Seeds of plant species selected from, blackgrass (Alopecurus myosuroides), corn (Zea mays), Foxtail, Giant (giant foxtail, Setaria faberi), goosegrass (Eleusine indica), kochia (Bassia scoparia), Oat, Wild (wild oat, Avena fatua), Pigweed, Palmer (palmer amaranth, palmer pigweed, Amaranthus palmeri), ragweed (common ragweed, Ambrosia artemisiifolia), Ryegrass, Italian (Italian ryegrass, Lolium multiflorum), soybean (Glycine max), and wheat (Triticum aestivum) were planted into a blend of loam soil and sand and treated preemergence with a directed soil spray using test chemicals formulated in a non-phytotoxic solvent mixture which included a surfactant. At the same time, plants selected from these crop and weed species and also galium (catchweed bedstraw, Galium aparine) and horseweed (Erigeron canadensis) were planted in pots containing the same blend of loam soil and sand and treated with postemergence applications of test chemicals formulated in the same manner. Plants ranged in height from 2 to 10 cm and were in the one- to two-leaf stage for the postemergence treatment. […] A dash (-) response means no test result.

[2] = tested on: ducksalad (Heteranthera limosa); assay: Test B1 flooded paddy test, ducksalad; conditions: 250 g ai/ha, Flood, applied to paddy water, 2-leaf stage, visually evaluated after 10 to 14 days
Text: (§2) A dash (-) response means no test result.

[3] = tested on: galium (catchweed bedstraw, Galium aparine); assay: Test A1 postemergence, galium; conditions: Postemergence
Text: as §1

[4] = tested on: Oat, Wild (wild oat, Avena fatua); assay: Test A1 preemergence, Oat, Wild
Text: as §1

[5] = tested on: wheat (Triticum aestivum); assay: Test A1 preemergence, wheat
Text: as §1

kochia (Bassia scoparia) [6] = assay: Test A1 preemergence, kochia
Text: as §1

[7] = tested on: ragweed (common ragweed, Ambrosia artemisiifolia); assay: Test A1 postemergence, ragweed; conditions: Postemergence
Text: as §1

[8] = tested on: goosegrass (Eleusine indica); assay: Test A1 postemergence, goosegrass; conditions: Postemergence
Text: as §1

[9] = tested on: Oat, Wild (wild oat, Avena fatua); assay: Test A1 postemergence, Oat, Wild; conditions: Postemergence
Text: as §1

corn (Zea mays) [10] = assay: Test A1 postemergence, corn; conditions: Postemergence
Text: as §1

[11] = tested on: barnyardgrass (Echinochloa crus-galli); assay: Test B1 flooded paddy test, barnyardgrass; conditions: 250 g ai/ha, Flood, applied to paddy water, 2-leaf stage, visually evaluated after 10 to 14 days
Text: as §2

soybean (Glycine max) [12] = assay: Test A1 postemergence, soybean; conditions: Postemergence
Text: as §1

[13] = tested on: wheat (Triticum aestivum); assay: Test A1 postemergence, wheat; conditions: Postemergence
Text: as §1

[14] = tested on: Ryegrass, Italian (Italian ryegrass, Lolium multiflorum); assay: Test A1 preemergence, Ryegrass, Italian
Text: as §1

[15] = tested on: Ryegrass, Italian (Italian ryegrass, Lolium multiflorum); assay: Test A1 postemergence, Ryegrass, Italian; conditions: Postemergence
Text: as §1

[16] = tested on: Foxtail, Giant (giant foxtail, Setaria faberi); assay: Test A1 postemergence, Foxtail, Giant; conditions: Postemergence
Text: as §1

[17] = tested on: Pigweed, Palmer (palmer amaranth, palmer pigweed, Amaranthus palmeri); assay: Test A1 preemergence, Pigweed, Palmer
Text: as §1

rice (Oryza sativa) = assay: Test B1 flooded paddy test, rice; conditions: 250 g ai/ha, Flood, applied to paddy water, 2-leaf stage, visually evaluated after 10 to 14 days
Text: as §2

corn (Zea mays) [18] = assay: Test A1 preemergence, corn
Text: as §1

[19] = tested on: horseweed (Erigeron canadensis); assay: Test A1 postemergence, horseweed; conditions: Postemergence
Text: as §1

[20] = tested on: Pigweed, Palmer (palmer amaranth, palmer pigweed, Amaranthus palmeri); assay: Test A1 postemergence, Pigweed, Palmer; conditions: Postemergence
Text: as §1

[21] = tested on: blackgrass (Alopecurus myosuroides); assay: Test A1 postemergence, blackgrass; conditions: Postemergence, 0 to 100 scale (0 no effect, 100 complete control)
Text: as §1

kochia (Bassia scoparia) [22] = assay: Test A1 postemergence, kochia; conditions: Postemergence
Text: as §1

[23] = tested on: goosegrass (Eleusine indica); assay: Test A1 preemergence, goosegrass
Text: as §1

soybean (Glycine max) [24] = assay: Test A1 preemergence, soybean
Text: as §1

[25] = tested on: ragweed (common ragweed, Ambrosia artemisiifolia); assay: Test A1 preemergence, ragweed
Text: as §1

[26] = 31 g ai/ha, 0 to 100 scale (0 no effect, 100 complete control)
[27] = 125 g ai/ha, 0 to 100 scale, 0 no effect, 100 complete control
[28] = 31 g ai/ha, 0 to 100 scale (0 no effect, 100 complete control), 10 days

## Cc1c(NS(=O)(=O)C(F)(F)F)cc(C(=O)N2CCSCC2)c(C)c1C [Compound 283]
[1]; [26]
  Plant response rating, Foxtail, Giant: 10
[1]; [27]
  Plant response rating, Foxtail, Giant: 90
[2]
  Plant response rating, Ducksalad (0 to 100 scale, 0 is no effect, 100 is complete control): 50
[3]; [28]
  Plant response rating, Galium: 50
[3]; 125 g ai/ha, 0 to 100 scale
  Plant response rating, Galium: 70
[4]; [27]
  Plant response rating, Oat, Wild: 0
[5]; [26]
  Plant response rating, Wheat: 0
[5]; [27]
  Plant response rating, Wheat: 50
Kochia (Bassia scoparia) [6]; [26]
  Plant response rating, Kochia: 30
Kochia (Bassia scoparia) [6]; [27]
  Plant response rating, Kochia: 90
[7]; [28]
  Plant response rating, Ragweed: 30
[7]; 125 g ai/ha, 0 to 100 scale
  Plant response rating, Ragweed: 80
[8]; [28]
  Plant response rating, Goosegrass: 10
[8]; 125 g ai/ha, 0 to 100 scale
  Plant response rating, Goosegrass: 30
[9]; [28]
  Plant response rating, Oat, Wild: 0
[9]; 125 g ai/ha, 0 to 100 scale
  Plant response rating, Oat, Wild: 0
Corn (Zea mays) [10]; [28]
  Plant response rating, Corn: 0
Corn (Zea mays) [10]; 125 g ai/ha, 0 to 100 scale
  Plant response rating, Corn: 0
[11]
  Plant response rating, Barnyardgrass (0 to 100 scale, 0 is no effect, 100 is complete control): 15
Soybean (Glycine max) [12]; [28]
  Plant response rating, Soybean: 40
Soybean (Glycine max) [12]; 125 g ai/ha, 0 to 100 scale
  Plant response rating, Soybean: 60
[13]; [28]
  Plant response rating, Wheat: 10
[13]; 125 g ai/ha, 0 to 100 scale
  Plant response rating, Wheat: 50
[14]; [26]
  Plant response rating, Ryegrass, Italian: 0
[14]; [27]
  Plant response rating, Ryegrass, Italian: 0
[15]; [28]
  Plant response rating, Ryegrass, Italian: 0
[15]; 125 g ai/ha, 0 to 100 scale
  Plant response rating, Ryegrass, Italian: 40
[16]; [28]
  Plant response rating, Foxtail, Giant: 80
[16]; 125 g ai/ha, 0 to 100 scale
  Plant response rating, Foxtail, Giant: 90
[17]; [26]
  Plant response rating, Pigweed, Palmer: 10
[17]; [27]
  Plant response rating, Pigweed, Palmer: 50
Rice (Oryza sativa)
  Plant response rating, Rice (0 to 100 scale, 0 is no effect, 100 is complete control): 0
Corn (Zea mays) [18]; [26]
  Plant response rating, Corn: 0
Corn (Zea mays) [18]; [27]
  Plant response rating, Corn: 10
[19]; [28]
  Plant response rating, Horseweed: 70
[19]; 125 g ai/ha, 0 to 100 scale
  Plant response rating, Horseweed: 80
[20]; [28]
  Plant response rating, Pigweed, Palmer: 10
[20]; 125 g ai/ha, 0 to 100 scale
  Plant response rating, Pigweed, Palmer: 50
[21]; 31 g ai/ha, 10 days
  Plant response rating, Blackgrass: 0
[21]; 125 g ai/ha
  Plant response rating, Blackgrass: 10
Kochia (Bassia scoparia) [22]; [28]
  Plant response rating, Kochia: 20
Kochia (Bassia scoparia) [22]; 125 g ai/ha, 0 to 100 scale
  Plant response rating, Kochia: 60
[23]; [26]
  Plant response rating, Goosegrass: 30
[23]; [27]
  Plant response rating, Goosegrass: 60
Soybean (Glycine max) [24]; [26]
  Plant response rating, Soybean: 0
Soybean (Glycine max) [24]; [27]
  Plant response rating, Soybean: 50
[25]; [26]
  Plant response rating, Ragweed: 0
[25]; [27]
  Plant response rating, Ragweed: 40

## Cc1c(C(=O)N2CCSCC2)cc(N(COC(=O)C(C)(C)C)S(=O)(=O)C(F)(F)F)c(C)c1C [Compound 285]
[1]; [26]
  Plant response rating, Foxtail, Giant: 40
[1]; [27]
  Plant response rating, Foxtail, Giant: 90
[2]
  Plant response rating, Ducksalad (0 to 100 scale, 0 is no effect, 100 is complete control): 50
[3]; [28]
  Plant response rating, Galium: 40
[3]; 125 g ai/ha, 0 to 100 scale
  Plant response rating, Galium: 80
[4]; [26]
  Plant response rating, Oat, Wild: 0
[4]; [27]
  Plant response rating, Oat, Wild: 20
[5]; [26]
  Plant response rating, Wheat: 0
[5]; [27]
  Plant response rating, Wheat: 20
Kochia (Bassia scoparia) [6]; [26]
  Plant response rating, Kochia: 20
Kochia (Bassia scoparia) [6]; [27]
  Plant response rating, Kochia: 70
[7]; [28]
  Plant response rating, Ragweed: 20
[7]; 125 g ai/ha, 0 to 100 scale
  Plant response rating, Ragweed: 90
[8]; [28]
  Plant response rating, Goosegrass: 0
[8]; 125 g ai/ha, 0 to 100 scale
  Plant response rating, Goosegrass: 50
[9]; [28]
  Plant response rating, Oat, Wild: 0
[9]; 125 g ai/ha, 0 to 100 scale
  Plant response rating, Oat, Wild: 10
Corn (Zea mays) [10]; [28]
  Plant response rating, Corn: 0
Corn (Zea mays) [10]; 125 g ai/ha, 0 to 100 scale
  Plant response rating, Corn: 0
[11]
  Plant response rating, Barnyardgrass (0 to 100 scale, 0 is no effect, 100 is complete control): 35
Soybean (Glycine max) [12]; [28]
  Plant response rating, Soybean: 30
Soybean (Glycine max) [12]; 125 g ai/ha, 0 to 100 scale
  Plant response rating, Soybean: 60
[13]; [28]
  Plant response rating, Wheat: 10
[13]; 125 g ai/ha, 0 to 100 scale
  Plant response rating, Wheat: 20
[14]; [26]
  Plant response rating, Ryegrass, Italian: 0
[14]; [27]
  Plant response rating, Ryegrass, Italian: 0
[15]; [28]
  Plant response rating, Ryegrass, Italian: 0
[15]; 125 g ai/ha, 0 to 100 scale
  Plant response rating, Ryegrass, Italian: 0
[16]; [28]
  Plant response rating, Foxtail, Giant: 30
[16]; 125 g ai/ha, 0 to 100 scale
  Plant response rating, Foxtail, Giant: 80
[17]; [26]
  Plant response rating, Pigweed, Palmer: 10
[17]; [27]
  Plant response rating, Pigweed, Palmer: 20
Rice (Oryza sativa)
  Plant response rating, Rice (0 to 100 scale, 0 is no effect, 100 is complete control): 0
Corn (Zea mays) [18]; [26]
  Plant response rating, Corn: 0
Corn (Zea mays) [18]; [27]
  Plant response rating, Corn: 10
[19]; [28]
  Plant response rating, Horseweed: 70
[19]; 125 g ai/ha, 0 to 100 scale
  Plant response rating, Horseweed: 80
[20]; [28]
  Plant response rating, Pigweed, Palmer: 0
[20]; 125 g ai/ha, 0 to 100 scale
  Plant response rating, Pigweed, Palmer: 20
[21]; 31 g ai/ha, 10 days
  Plant response rating, Blackgrass: 0
[21]; 125 g ai/ha
  Plant response rating, Blackgrass: 30
Kochia (Bassia scoparia) [22]; [28]
  Plant response rating, Kochia: 10
Kochia (Bassia scoparia) [22]; 125 g ai/ha, 0 to 100 scale
  Plant response rating, Kochia: 90
[23]; [26]
  Plant response rating, Goosegrass: 0
[23]; [27]
  Plant response rating, Goosegrass: 70
Soybean (Glycine max) [24]; [26]
  Plant response rating, Soybean: 0
Soybean (Glycine max) [24]; [27]
  Plant response rating, Soybean: 0
[25]; [26]
  Plant response rating, Ragweed: 0
[25]; [27]
  Plant response rating, Ragweed: 10
